According to US5223482A, “Recombinant Alzheimer's protease inhibitory amyloid protein and method of use” (Scios Nova Inc., priority 1989, dated 1993):
Where no end group is shown, it is not given here.

Key:
Type in all cases: biochemical
trypsin [1] = assay: Kinetics of inhibition (Ki) of the protease inhibitor for trypsin
Method: (§1) The analogs of the present protease inhibitors are constructed from oligonucleotides containing the specific codons encoding the desired amino acid at this location, using site-specific mutagenesis techniques as are known in the art. The desired activities of the analogs thus constructed are assayed using the appropriate enzyme, for example, either trypsin, chymotrypsin or elastase as the standard in one of the respective assays using, for example, the trypsin or chymotrypsin assays described in Tan, N. H. Biochem (1977) 16:1531-1541 and the elastase assays Barrett, A. J. (1981) in Methods in Enzymology vol. 80, L. Lorand ed., Academic Press, New York. The activity of the analogs may be compared with that of the natural protease inhibitor of the invention.

chymotrypsin = assay: Kinetics of inhibition (Ki) of the protease inhibitor for chymotrypsin
Method: as §1

trypsin [2] = assay: Trypsin inhibition assay (hydrolysis of N-benzoyl-D-arginine-p-nitroaniline, release of pNA); conditions: HPLC peaks of the trypsin affinity column eluate
Method: All 8 oligonucleotides encoding either the phoA or ompA fusions were mixed together and treated with ligase. […] The ligated constructs were then ligated into the NdeI-HindIII sites of the vector pTRP233. The ligated vectors were transfected into E. coli strain MC1061 and Amp^R colonies selected. […] Miniprep DNA was used to transfect strains W3110 and JE5505. Small scale cultures of each of the three strains were grown and induced with IAA overnight. Culture supernatants were examined for trypsin inhibitory acitvity. Trypsin is assayed for its ability to hydrolyze the synthetic substrate N-benzoyl-D-arginine-p-nitroaniline to release p-nitroaniline (pNA). The release of pNA as a function of time is easily monitored in a spectrophotomer and can be quantitated to measure trypsin activity. The inhibitor is detected in this assay by virtue of its ability to bind to trypsin and prevent hydrolysis of the substrate by trypsin. Inhibitory activity wad detected in the culture medium for both ompA and phoA constructs in JE5505 but not W3110 or MC1601. Expression levels appeared to be higher with the phoA construct and so only this construct was used for subsequent experiments.

Ki (trypsin [1])	Ki (chymotrypsin)	Substance	activity in the trypsin inhibition assay (trypsin [2])
3 nM	8.5 nM	natural protease inhibitor: 57 amino acid Kunitz-type protease inhibitor, residues 289 through 345 of the λAPCP168i4 β-amyloid-related protein (EVCSEQAETGPCRAMISRWYFDVTEGKCAPFFYGGCGGNRNNFDTEEYCMAVCGSAM; Kunitz inhibitor domain; UniProt P05067 289-345, looked up, fragment)	
		peak 4: major HPLC peak of the purified inhibitor; mass consistent with full length A4i with 3 disulfide bridges (EVCSEQAETGPCRAMISRWYFDVTEGKCAPFFYGGCGGNRNNFDTEEYCMAVCGSAM; disulfide (positions not given here); UniProt P05067 289-345, looked up, fragment)	active
